Test results as given in paper PMC7377239, “Cardiovascular Effects of Polychlorinated Biphenyls and Their Major Metabolites” (Environmental Health Perspectives, 2020).
Where two headings read alike, the source gives them in different places.

Experiments:
[1] = tested on: HUVECs; assay: High-content imaging cytotoxicity in HUVECs, 24 h; format: cell-based, human; conditions: Homo sapiens, HUVEC, 24 h, HUVECs; for viability at 0.01 µM / activity at 0.01 µM: concentration 0.01 µM; for viability at 0.01 µM / activity at 0.01 µM / viability at 0.1 µM / activity at 0.1 µM / viability at 1 µM / activity at 1 µM / viability at 10 µM / activity at 10 µM / viability at 100 µM / activity at 100 µM: 0.00 µM = 100.00; for viability at 0.1 µM / activity at 0.1 µM: concentration 0.10 µM; for viability at 1 µM / activity at 1 µM: concentration 1.00 µM; for viability at 10 µM / activity at 10 µM: concentration 10.00 µM; for viability at 100 µM / activity at 100 µM: concentration 100.00 µM; for minimal effective concentration: MAX 100.00
Procedure, shortened: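 HUVECs (passages 1–5) grown to monolayer over 3–5 d, then exposed 24 h at 37°C, 5% CO2; stained with Hoechst 33342, MitoTracker Orange and calcein AM and imaged at 10×. Readouts normalized to 0.5% DMSO vehicle, four-parameter logistic fit; POD at one-SD cutoff, 100μM assigned when no response.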

[2] = tested on: iCell endothelial cells (human iPSC-derived ECs); assay: High-content imaging cytotoxicity in iCell endothelial cells, 24 h; format: cell-based; conditions: Homo sapiens, Endothelial cell, iPSC-EC; for viability at 0.1 µM / activity at 0.1 µM: 0.10 µM; for minimal effective concentration: 100.00 = highest concentration tested
Procedure, shortened: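 Human iPSC-derived endothelial cells (passages 1–5) were grown to a fibronectin-coated monolayer, then exposed 24 h at 37 °C with 0.5% DMSO vehicle. Staining was Hoechst 33342, MitoTracker Orange and calcein AM, read by high-content imaging. Point of departure came from 4-parameter logistic fits, with a 1-SD vehicle cutoff and 100 µM as the top concentration.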

[3] = 24 hr, read-out: huvec.cyto.24hr
[4] = 24 hr, read-out: huvec.mito.24hr
[5] = 24 hr, read-out: huvec.mitoint.24hr
[6] = 24 hr, read-out: huvec.nma.24hr
[7] = 24 hrs, read-out: huvec.tc.24hrs
[8] = 0.00 µM = 100.00, read-out: endo.cyto.24hr
[9] = 0.00 µM = 100.00, read-out: endo.mito.24hr
[10] = 0.00 µM = 100.00, read-out: endo.mitoint.24hr
[11] = 0.00 µM = 100.00, read-out: endo.nma.24hr
[12] = 0.00 µM = 100.00, read-out: endo.tc.24hrs

Question: Clc1ccc(Cl)c(-c2c(Cl)ccc(Cl)c2Cl)c1 [PCB95] was tested. Which viability at 0.01 µM [1, 3] did it give?
Answer: Its viability at 0.01 µM is 81%.

Question: What about the activity at 0.01 µM [1, 4] of the same compound?
Answer: Its activity at 0.01 µM is 79.4%.

Question: And the activity at 0.01 µM [1, 5]?
Answer: The activity at 0.01 µM was 106%.

Question: What about the activity at 0.01 µM [1, 6] of the same compound?
Answer: Its activity at 0.01 µM is 97.4%.

Question: And the viability at 0.1 µM [1, 3]?
Answer: The viability at 0.1 µM was 85.5%.

Question: And the activity at 0.1 µM [1, 4]?
Answer: The activity at 0.1 µM was 84.2%.

Question: And the activity at 0.1 µM [1, 5]?
Answer: Its activity at 0.1 µM is 109%.

Question: And the activity at 0.1 µM [1, 6]?
Answer: Its activity at 0.1 µM is 98.6%.

Question: And the viability at 1 µM [1, 3]?
Answer: The viability at 1 µM was 94.8%.

Question: What about the activity at 1 µM [1, 4] of the same compound?
Answer: The activity at 1 µM was 93.4%.

Question: What about the activity at 1 µM [1, 5] of the same compound?
Answer: Its activity at 1 µM is 106%.

Question: And the activity at 1 µM [1, 6]?
Answer: The activity at 1 µM was 98.7%.

Question: And the viability at 10 µM [1, 3]?
Answer: Its viability at 10 µM is 70.3%.

Question: And the activity at 10 µM [1, 4]?
Answer: Its activity at 10 µM is 63.8%.

Question: What about the activity at 10 µM [1, 5] of the same compound?
Answer: Its activity at 10 µM is 76.7%.

Question: And the activity at 10 µM [1, 6]?
Answer: The activity at 10 µM was 86.4%.

Question: And the viability at 100 µM [1, 3]?
Answer: Its viability at 100 µM is 64.5%.

Question: And the activity at 100 µM [1, 4]?
Answer: The activity at 100 µM was 50.7%.

Question: And the activity at 100 µM [1, 5]?
Answer: Its activity at 100 µM is 18.7%.

Question: And the activity at 100 µM [1, 6]?
Answer: Its activity at 100 µM is 56.5%.

Question: What about the minimal effective concentration ([1]; 24 hr, read-out: huvec.cyto.24hr POD) of the same compound?
Answer: Its minimal effective concentration is 0.01 µM.

Question: What about the minimal effective concentration ([1]; 24 hr, read-out: huvec.mito.24hr POD) of the same compound?
Answer: The minimal effective concentration was 0.022 µM.

Question: And the minimal effective concentration ([1]; 24 hr, read-out: huvec.mitoint.24hr POD)?
Answer: Its minimal effective concentration is 7.41 µM.

Question: What about the minimal effective concentration ([1]; 24 hr, read-out: huvec.nma.24hr POD) of the same compound?
Answer: The minimal effective concentration was 1.93 µM.

Question: What about the viability at 0.01 µM [1, 7] of the same compound?
Answer: The viability at 0.01 µM was 81%.

Question: What about the viability at 0.1 µM [1, 7] of the same compound?
Answer: The viability at 0.1 µM was 85.5%.

Question: What about the viability at 1 µM [1, 7] of the same compound?
Answer: Its viability at 1 µM is 94.8%.

Question: What about the viability at 10 µM [1, 7] of the same compound?
Answer: The viability at 10 µM was 70.3%.

Question: And the viability at 100 µM [1, 7]?
Answer: The viability at 100 µM was 64.5%.

Question: And the minimal effective concentration ([1]; 24 hrs, read-out: huvec.tc.24hrs POD)?
Answer: The minimal effective concentration was 0.01 µM.

Question: What about the viability at 0.01 µM [2, 8] of the same compound?
Answer: The viability at 0.01 µM was 96.8%.

Question: What about the activity at 0.01 µM [2, 9] of the same compound?
Answer: Its activity at 0.01 µM is 96.7%.

Question: And the activity at 0.01 µM [2, 10]?
Answer: Its activity at 0.01 µM is 93.2%.

Question: What about the activity at 0.01 µM [2, 11] of the same compound?
Answer: Its activity at 0.01 µM is 103%.

Question: And the viability at 0.01 µM [2, 12]?
Answer: Its viability at 0.01 µM is 96.8%.

Question: What about the viability at 0.1 µM [2, 8] of the same compound?
Answer: Its viability at 0.1 µM is 102%.

Question: What about the activity at 0.1 µM [2, 9] of the same compound?
Answer: The activity at 0.1 µM was 102%.

Question: And the activity at 0.1 µM [2, 10]?
Answer: The activity at 0.1 µM was 87.2%.

Question: What about the activity at 0.1 µM [2, 11] of the same compound?
Answer: The activity at 0.1 µM was 104%.

Question: And the viability at 0.1 µM [2, 12]?
Answer: Its viability at 0.1 µM is 102%.

Question: What about the viability at 1 µM [2, 8] of the same compound?
Answer: The viability at 1 µM was 105%.

Question: And the activity at 1 µM [2, 9]?
Answer: Its activity at 1 µM is 106%.

Question: What about the activity at 1 µM [2, 10] of the same compound?
Answer: The activity at 1 µM was 84.4%.

Question: And the activity at 1 µM [2, 11]?
Answer: Its activity at 1 µM is 98.6%.

Question: What about the viability at 1 µM [2, 12] of the same compound?
Answer: The viability at 1 µM was 105%.

Question: What about the viability at 10 µM [2, 8] of the same compound?
Answer: The viability at 10 µM was 104%.

Question: And the activity at 10 µM [2, 9]?
Answer: Its activity at 10 µM is 104%.

Question: And the activity at 10 µM [2, 10]?
Answer: Its activity at 10 µM is 93.9%.

Question: What about the activity at 10 µM [2, 11] of the same compound?
Answer: The activity at 10 µM was 100%.

Question: What about the viability at 10 µM [2, 12] of the same compound?
Answer: The viability at 10 µM was 104%.

Question: What about the viability at 100 µM [2, 8] of the same compound?
Answer: The viability at 100 µM was 102%.

Question: And the activity at 100 µM [2, 9]?
Answer: Its activity at 100 µM is 103%.

Question: And the activity at 100 µM [2, 10]?
Answer: The activity at 100 µM was 93.6%.

Question: What about the activity at 100 µM [2, 11] of the same compound?
Answer: The activity at 100 µM was 97.4%.

Question: And the viability at 100 µM [2, 12]?
Answer: Its viability at 100 µM is 102%.

Question: What about the minimal effective concentration ([2]; read-out: endo.cyto.24hr POD) of the same compound?
Answer: The minimal effective concentration was 100 µM.

Question: And the minimal effective concentration ([2]; read-out: endo.mito.24hr POD)?
Answer: The minimal effective concentration was 100 µM.

Question: And the minimal effective concentration ([2]; read-out: endo.mitoint.24hr POD)?
Answer: The minimal effective concentration was 100 µM.

Question: And the minimal effective concentration ([2]; read-out: endo.nma.24hr POD)?
Answer: Its minimal effective concentration is 100 µM.

Question: What about the minimal effective concentration ([2]; read-out: endo.tc.24hrs POD) of the same compound?
Answer: The minimal effective concentration was 100 µM.
